Experimental data reported in patent publication US12195551B2, “Combination of an ErbB-2/ErbB-3 bispecific antibody with endocrine therapy for breast cancer” (Merus N.V., priority 2017, dated 2025).

Key:
HBCx-34 PDX model = details: model characterisation; cited from earlier work
[1] = test system: MCF-7 human breast carcinoma; experiment: Efficacy in nude mouse xenograft model of MCF-7 human breast carcinoma; assay type: in vivo
Procedure: MCLA-128 was evaluated as monotherapy and in combination with the SERM Tamoxifen and SERD Fulvestrant (Faslodex®) for efficacy in a nude mouse xenograft model of estrogen responsive MCF-7 human breast carcinoma. The study design also included tumor collection for downstream analysis.
Treatments began on D1 in mice with established subcutaneous MCF-7 tumors. The study endpoint was intended to be a tumor volume endpoint of 1000 mm3 45 days, whichever came first. […] Tumor regressions, mean tumor growth, and treatment tolerability also were considered.
The animals were fed ad libitum water (reverse osmosis, 1 ppm Cl) and NIH 31 Modified and Irradiated Lab Diet® consisting of 18.0% crude protein, 6.0% crude fat, and 5.0% crude fiber. The mice were housed on irradiated Enrich-o'Cobs™ Laboratory Animal Bedding in static 85 microisolators on a 12-hour light cycle at […] (68-72° F.) and 40-60% humidity.
Three days prior to tumor cell implantation, estrogen pellets (0.36 mg estradiol, 60-day release, Innovative Research of America, Sarasota, FL) were implanted subcutaneously between the scapulae of all test animals using a sterilized trocar.
Xenografts were initiated with cultured MCF-7 human breast carcinoma cells. Tumor cells were grown to mid-log phase in RPMI-1640 medium containing 10% fetal bovine serum, 100 units/mL penicillin G, 100 μg/mL streptomycin sulfate, 2 mM glutamine, 10 mM HEPES, 0.075% sodium bicarbonate and 25 μg/mL gentamicin. On the day of tumor cell implant, the cells were trypsinized, pelleted, and resuspended in phosphate buffered saline (PBS) at a concentration of 1×10e8 cells/mL. Each test mouse received 1×10e7 MCF-7 cells implanted subcutaneously in the right flank, and tumor growth was monitored as their mean volume approached the desired 100 to 150 mm3 range.
Nineteen days after tumor cell implantation, designated as D1 of the study, the mice were placed into six groups of 15 animals and four groups of six animals, Individual tumor volumes ranged from 75 to 196 mm3 and group mean tumor volumes of 134-137 mm3 on D1. Tumor weight was estimated with the assumption that 1 mg is equivalent to 1 mm3 of tumor volume.
MCLA-128 was stored at 4° C., was provided pre-formulated at 2.5 mg/mL and ready to dose as 25 mg/kg in a 10 mL/kg dose volume, and was protected from light during storage and handling. Tamoxifen (Sigma-25 Aldrich. Lot No. WXBB5732V) was received as a powder and was stored at 4° C. protected from light. Each week, a 5 mg/mL dose solution was prepared in corn oil, and each mouse received 0.2 mL for a dose of 1 mg/animal. The dose solution was stored at 4° C. Fulvestrant tradename Faslodex® (AstraZeneca, Lot No. LV032, LW466, and LX432) was received as 50 mg/mL stock solution that was stored at 4° C. Each dosing day, the stock was diluted in corn oil to 25 mg/mL, and each mouse received 0.2 mL for a dose of 5 mg/animal.
Groups 1 and 7 served as controls for efficacy and sampling, respectively, and received MCLA-128 vehicle intraperitoneally (i.p.) on D1, 4, 8, 11, 15, 18, 22, 25, and 29 and corn oil subcutaneously (s.c.) every other day for fifteen doses (qod×15). Groups 2 and 8 were administered MCLA-128 at 25 mg/kg, i.p., on the same schedule as MCLA-128 vehicle. Groups 3 and 9 were administered Faslodex® at 5.0 mg/animal, s.c., once weekly for five weeks (qwk×5). Group 4 was administered Tamoxifen at 1 mg/animal, s.c., qod×15. Groups 5 and 10 received MCLA-128 and Faslodex®, on the regimens described above. Group 6 received MCLA-128 and Tamoxifen on the regimens described above.
MCLA-128 was administered at a 10 mL/kg dose volume, scaled to the individual body weight of each animal.

HER2 = experiment: Reverse phase protein array (RPPA) in MCF-7 tumor xenografts: HER2; assay type: in vivo, human; details: vs vehicle group, one-way ANOVA
From the text: FIG. 9. Reverse phase protein array (RPPA) in MCF-7 tumor xenografts treated with vehicle, MCLA-128, Fulvestrant, Tamoxifen, MCLA-128+ Fulvestrant or MCLA-128+ Tamoxifen. Proteins detected in this assay included (phospho)-Akt and (phospho)-HER3 (full data provided in Appendix 4). One-way ANOVA compared levels in all tumors derived from treatment groups with those derived from the PBS group. ** indicates P<0.01.
Tumors from groups 1-6 were collected when they had reached the maximum tolerated volume, or at the end of the experiment at day 39, which was 10 days after the last dose. Per treatment group, six tumors were included in the Reverse phase protein array (RPPA). The selection of tumors was made so that the average tumor size of the 6 specimens was close to that of the whole group. RPPA analysis was performed as follows: tumors were sectioned and placed on immunohistochemistry slides. Stromal and inflammatory content was macrodissected to purify for tumors cells. Protein lysates were prepared and protein content was quantified. […] Reverse phase protein array (RPPA) data were analyzed using one-way ANOVA to detect significant differences between the treatment groups and the vehicle group. […] Total ERK levels were increased in the single agent groups only, no differences were measured in the other groups or in the phosphorylated ERK analysis. […]

| SMILES | response of the HBCx-34 PDX model (HBCx-34 PDX model) | % TGI (tumor growth inhibition) ([1]; D25, relative to the control group, MCLA-128 25 mg/kg i.p., Faslodex 5.0 mg/animal, Tamoxifen 1 mg/animal) | median tumor volume ([1]; D25, MCLA-128 25 mg/kg i.p., Faslodex 5.0 mg/animal s.c. qwk×5, Tamoxifen 1 mg/animal s.c. qod×15) | P relative to the control group ([1]; D25 tumor volumes, Mann-Whitney test) | anti-tumor efficacy / survival benefit (in words) ([1]; MCF-7 nude mouse xenograft model) | Total HER2 levels (RPPA) (HER2) |
| --- | --- | --- | --- | --- | --- | --- |
| CCCCCOC(=O)Nc1nc(=O)n([C@@H]2O[C@H](C)[C@@H](O)[C@H]2O)cc1F [Capecitabine] | responder | – | – | – | – | – |
| CC(=O)O[C@@]12CO[C@@H]1C[C@H](O)[C@@]1(C)C(=O)[C@H](O)C3=C(C)[C@@H](OC(=O)[C@H](O)[C@@H](NC(=O)OC(C)(C)C)c4ccccc4)C[C@@](O)([C@@H](OC(=O)c4ccccc4)[C@H]21)C3(C)C [Docetaxel] | responder | – | – | – | – | – |
| CC/C(=C(\c1ccccc1)c1ccc(OCCN(C)C)cc1)c1ccccc1 [Tamoxifen] | responder | 69% | 184 mm3 | < 0.001 | significantly reduced tumor growth | significantly increased |
